{
  "source": "patent US8487103B2",
  "about": "(Roche Palo Alto LLC, priority 2009, dated 2013)",
  "key": {"[1]": {"target": "T1, HCV polymerase (NS5B570n-Con1) (Hepatitis C virus genotype 1b, UniProt Q9WMX2)", "T1 construct": "contains a 21 amino acid deletion at the C-terminus relative to the full-length HCV polymerase; 6-histidine (N); made in house; host or cells: E. coli BL21(DE) pLysS, plasmid pET 17b", "experiment": "HCV NS5B RNA Polymerase Activity", "format": "biochemical, HCV Con1 strain", "protocol": "The enzymatic activity of HCV polymerase (NS5B570n-Con1) was measured as the incorporation of radiolabeled nucleotide monophosphates into acid insoluble RNA products. Unincorporated radiolabeled substrate was removed by filtration and scintillant was added to the washed and dried filter plate containing radiolabeled RNA product. The amount of RNA product generated by NS5B570-Con1 at the end of the reaction was directly proportional to the amount of light emitted by the scintillant.\nThe N-terminal 6-histidine tagged HCV polymerase, derived from HCV Con1 strain, genotype 1b (NS5B570n-Con1) contains a 21 amino acid deletion at the C-terminus relative to the full-length HCV polymerase and was purified from E. coli strain BL21(DE) pLysS. The construct, containing the coding sequence of HCV NS5B Con1 (GenBank accession number AJ242654) was inserted into the plasmid construct pET 17b, downstream of a T7 promoter expression cassette and transformed into E. coli. A single colony was grown overnight as a starter culture and later used inoculate 10 L of LB media supplemented with 100 μg/mL ampicillin at 37° C. Protein expression was induced by the addition of 0.25 mM isopropyl-β-D-thiogalactopyranoside (IPTG) when optical density at […] of the culture was between 0.6 and 0.8 and cells were harvested after 16 to 18 h at 30° C. NS5B570n-Con1 was purified to homogeneity using a three-step protocol including subsequent column chromatography on Ni-NTA, SP-Sepharose HP and Superdex 75 resins.\nEach 50 μL enzymatic reaction contained 20 nM RNA template derived from the complementary sequence of the Internal Ribosome Entry Site (cIRES), 20 nM NS5B570n-Con1 enzyme, 0.5 μCi of tritiated UTP (Perkin Elmer catalog no. TRK-412; specific activity: 30 to 60 Ci/mmol; stock solution concentration from 7.5×10^−5 M to 20.6×10^−6 M), 1 μM each ATP, CTP, and GTP, 40 mM Tris-HCl pH 8.0, 40 mM NaCl, 4 mM DTT (dithiothreitol), 4 mM MgCl2, and 5 μl of compound serial diluted in DMSO. Reaction mixtures were assembled in 96-well filter plates (cat #MADVN0B, Millipore Co.) and incubated for 2 h at 30° C. Reactions were stopped by addition of 10% final (v/v) trichloroacetic acid and incubated for 40 min at 4° C. Reactions were filtered, washed with 8 reaction volumes of 10% (v/v) trichloroacetic acetic acid, 4 reaction volumes of 70% (v/v) ethanol, air dried, and 25 μl of scintillant (Microscint 20, Perkin-Elmer) was added to each reaction well.\nThe amount of light emitted from the scintillant was converted to counts per minute (CPM) on a Topcount® plate reader (Perkin-Elmer, Energy Range: Low, Efficiency Mode Normal, Count Time: 1 min, Background Subtract: none, Cross talk reduction: Off).\nData was analyzed in Excel® (Microsoft) and ActivityBase® (Idbs®). The reaction in the absence of enzyme was used to determine the background signal, which was subtracted from the enzymatic reactions. Positive control reactions were performed in the absence of compound, from which the background corrected activity was set as 100% polymerase activity. All data was expressed as a percentage of the positive control. The compound concentration at which the enzyme-catalyzed rate of RNA synthesis was reduced by 50% (IC50) was calculated by fitting equation (i) to the data where“Y”\n[formula] corresponds to the relative enzyme activity (in %), “% Min” is the residual relative activity at saturating compound concentration, “% Max” is the relative maximum enzymatic activity, “X” corresponds to the compound concentration, and “S” is the Hill coefficient (or slope)."}, "[2]": {"test_system": "HCV replicon cells (2209-23), genotype 1b replicon", "experiment": "HCV Replicon Assay (Renilla luciferase reporter)", "format": "cell-based, HCV genotype 1b", "details": "Hepatitis C virus, 72 h; cell line 2209-23, luciferase activity after three days"}, "in vitro": {"experiment": "in vitro", "details": "human"}, "HCV": {"test_system": "HCV", "details": "cited from earlier work"}},
  "data": [
    {"smiles": "COc1nc2c(-c3ccc[nH]c3=O)cc(C(C)(C)C)cc2cc1-c1ccc(NS(C)(=O)=O)cc1", "note": "[Compound I-1, N-{4-[6-tert-Butyl-2-methoxy-8-(2-oxo-1,2-dihydro-pyridin-3-yl)-quinolin-3-yl]-phenyl}-methanesulfonamide]", "values": [
      {"measurement": "IC50", "setting": "[1]", "result": 8, "unit": "nM"},
      {"measurement": "melting point", "result": "274 to 276", "unit": "°C"}
    ]},
    {"smiles": "CC(C)(C)c1cc(-c2cc(F)c[nH]c2=O)c2ncc(-c3ccc(NS(C)(=O)=O)cc3)nc2c1", "note": "[Compound I-2, N-{4-[7-tert-Butyl-5-(5-fluoro-2-oxo-1,2-dihydro-pyridin-3-yl)-quinoxalin-2-yl]-phenyl}-methanesulfonamide]", "values": [
      {"measurement": "IC50", "setting": "[1]", "result": 31, "unit": "nM"},
      {"measurement": "melting point", "result": "> 300", "unit": "°C"}
    ]},
    {"smiles": "CC(C)(C)c1cc(-c2cc(F)c[nH]c2=O)c2ncc(N3CC[C@H](CNS(C)(=O)=O)C3)nc2c1", "note": "[Compound I-4, N-{(S)-1-[7-tert-Butyl-5-(5-fluoro-2-oxo-1,2-dihydro-pyridin-3-yl)-quinoxalin-2-yl]-pyrrolidin-3-ylmethyl}-methanesulfonamide]", "values": [
      {"measurement": "IC50", "setting": "[1]", "result": 191, "unit": "nM"},
      {"measurement": "melting point", "result": "170 to 175", "unit": "°C"}
    ]},
    {"smiles": "CC(C)(C)c1cc(-c2cc(F)c[nH]c2=O)c2ncc(N3CCC(NS(C)(=O)=O)CC3)nc2c1", "note": "[Compound I-5]", "values": [
      {"measurement": "IC50", "setting": "[1]", "result": 817, "unit": "nM"},
      {"measurement": "melting point", "result": "224 to 226", "unit": "°C"}
    ]},
    {"smiles": "CC(C)(C)c1cc(-c2ccc[nH]c2=O)c2ncc(-c3ccc(NS(C)(=O)=O)cc3)nc2c1", "note": "[Compound I-6, N-{4-[7-tert-Butyl-5-(2-oxo-1,2-dihydro-pyridin-3-yl)-quinoxalin-2-yl]-phenyl}-methanesulfonamide]", "values": [
      {"measurement": "IC50", "setting": "[1]", "result": 1, "unit": "nM"},
      {"measurement": "melting point", "result": "260 to 263", "unit": "°C"}
    ]},
    {"smiles": "CC(C)(C)c1cc(-c2ccc[nH]c2=O)c2ncc(-c3ccc(NS(C)(=O)=O)cc3Cl)nc2c1", "note": "[Compound I-7]", "values": [
      {"measurement": "IC50", "setting": "[1]", "result": 3, "unit": "nM"},
      {"measurement": "melting point", "result": "275 to 278", "unit": "°C"}
    ]},
    {"smiles": "CC(C)(C)c1cc(-c2cc(F)c[nH]c2=O)c2ncc(N3CCC(NS(C)(=O)=O)CC3)cc2c1", "note": "[Compound I-13, N-{1-[6-tert-Butyl-8-(5-fluoro-2-oxo-1,2-dihydro-pyridin-3-yl)-quinolin-3-yl]-piperidin-4-yl}-methanesulfonamide]", "values": [
      {"measurement": "IC50", "setting": "[1]", "result": 64, "unit": "nM"},
      {"measurement": "melting point", "result": "186 to 188", "unit": "°C"}
    ]},
    {"smiles": "COc1c(C(C)(C)C)cc(-c2ccc[nH]c2=O)c2ncc(N3CC[C@H](CNS(C)(=O)=O)C3)cc12", "note": "[Compound I-18, N-{(S)-1-[6-tert-Butyl-5-methoxy-8-(2-oxo-1,2-dihydro-pyridin-3-yl)-quinolin-3-yl]-pyrrolidin-3-ylmethyl}-methanesulfonamide]", "values": [
      {"measurement": "IC50", "setting": "[1]", "result": 0.2, "unit": "nM"},
      {"measurement": "IC50", "setting": "[2]", "result": 5.2, "unit": "nM"},
      {"measurement": "melting point", "result": "275 to 280", "unit": "°C"},
      {"measurement": "CC50 at 3 days", "setting": "in vitro", "result": 30300, "unit": "nM"}
    ]},
    {"smiles": "COc1c(C(C)(C)C)cc(-c2ccc[nH]c2=O)c2ncc(N3CC(CNS(C)(=O)=O)C3)cc12", "note": "[Compound I-19, N-{1-[6-tert-Butyl-5-methoxy-8-(2-oxo-1,2-dihydro-pyridin-3-yl)-quinolin-3-yl]-azetidin-3-ylmethyl}-methanesulfonamide]", "values": [
      {"measurement": "IC50", "setting": "[1]", "result": 3, "unit": "nM"},
      {"measurement": "melting point", "result": "177 to 180", "unit": "°C"}
    ]},
    {"smiles": "COc1c(C(C)(C)C)cc(-n2ccc(=O)[nH]c2=O)c2ncc(-c3ccc(NS(C)(=O)=O)cc3)cc12", "note": "[Compound I-21, N-{4-[6-tert-Butyl-8-(2,4-dioxo-3,4-dihydro-2H-pyrimidin-1-yl)-5-methoxy-quinolin-3-yl]-phenyl}-methanesulfonamide]", "values": [
      {"measurement": "IC50", "setting": "[1]", "result": 2.2, "unit": "nM"},
      {"measurement": "IC50", "setting": "[2]", "result": 0.3, "unit": "nM"},
      {"measurement": "melting point", "result": "277 to 281", "unit": "°C"}
    ]},
    {"smiles": "COc1c(C(C)(C)C)cc(-c2ccc(CO)[nH]c2=O)c2ncc(-c3ccc(NS(C)(=O)=O)cc3)cc12", "note": "[Compound I-41, N-{4-[6-tert-Butyl-8-(6-hydroxymethyl-2-oxo-1,2-dihydro-pyridin-3-yl)-5-methoxy-quinolin-3-yl]-phenyl}-methanesulfonamide]", "values": [
      {"measurement": "IC50", "setting": "[1]", "result": 0.2, "unit": "nM"},
      {"measurement": "melting point", "result": "293 to 295", "unit": "°C"}
    ]},
    {"smiles": "Cc1ccc(-c2nc(C(C)(C)C)cc3cc(-c4ccc(NS(C)(=O)=O)cc4)ccc23)c(=O)[nH]1", "note": "[Compound I-48, N-{4-[3-tert-Butyl-1-(6-methyl-2-oxo-1,2-dihydro-pyridin-3-yl)-isoquinolin-6-yl]-phenyl}-methanesulfonamide]", "values": [
      {"measurement": "IC50", "setting": "[2]", "result": 27.4, "unit": "nM"}
    ]},
    {"smiles": "COc1ccc(-c2cc(C(C)(C)C)cc3cc(N4CC[C@H](CNS(C)(=O)=O)C4)cnc23)c(=O)[nH]1", "note": "[Compound I-60, N-{(S)-1-[6-tert-Butyl-8-(6-methoxy-2-oxo-1,2-dihydro-pyridin-3-yl)-quinolin-3-yl]-pyrrolidin-3-ylmethyl}-methanesulfonamide]", "values": [
      {"measurement": "IC50", "setting": "[2]", "result": 81.8, "unit": "nM"}
    ]},
    {"smiles": "NC(=O)c1ncn([C@@H]2O[C@H](CO)[C@@H](O)[C@H]2O)n1", "note": "[ribavirin, 1-((2R,3R,4S,5R)-3,4-Dihydroxy-5-hydroxymethyl-tetrahydro-furan-2-yl)-1H-[1,2,4]triazole-3-carboxylic acid amide]", "values": [
      {"measurement": "serum amino transferase levels reduced to normal, share of patients", "setting": "HCV; monotherapy", "result": 40, "unit": "%"},
      {"measurement": "effect on serum HCV-RNA", "setting": "HCV; sole treatment / monotherapy", "result": "does not lower serum levels of HCV-RNA"}
    ]}
  ]
}
